Legend:
HCT116 = experiment: Cytotoxicity assay (propidium iodide), HCT116; assay type: cell-based; settings: Homo sapiens, HCT-116; HCT116 (C4b, colon); 48 hours
Procedure: (§4) Cells from cell lines as mentioned in the table given below were seeded at a density of 3000 cells/well in a white opaque 96-well plate. Following incubation at 37° C./5% CO2 for a period of 18-24 hours, the cells were treated with various concentrations (stock solution was prepared in DMSO and subsequent dilutions were made in media as per ATCC guidelines) of the representative compounds of present invention (refer table 3) for a period of 48 hours. At the end of treatment, the spent culture medium was discarded, the cells were washed with 1×PBS and 200 μl of 7 μg/ml propidium iodide was added to each well. The plates were frozen at −70° C. for at least 24 hours. For analysis, the plates were brought to RT, allowed to thaw and were read in PolarStar fluorimeter with the fluorescence setting. The percentage of viable cells in the non treated set of wells was considered to be 100 and the percentage viability following treatment was calculated accordingly. IC50 values were calculated from graphs plotted using these percentages.

PANC 1 = experiment: Cytotoxicity assay (propidium iodide), PANC 1; assay type: cell-based; settings: Homo sapiens; PANC 1 (C5a, pancreatic); 48 hours
Procedure: as §4

TNF-α [1] = experiment: Human monocyte assay, LPS-stimulated TNF-α; assay type: cell-based; settings: human monocytes, 1 μg/ml LPS, 5 hours
Procedure: The assay was designed as in the reference, Physiol.
Peripheral blood mononuclear cells (hPBMC) were harvested from human blood and suspended in RPMI 1640 culture medium containing 10% FCS, 100 U/mL penicillin and […] streptomycin (assay medium). Monocytes in the hPBMCs were counted using a Coulter Counter following which the cells were resuspended at 2×10^5 monocytes/mL. A cell suspension containing 2×10^4 monocytes was aliquoted per well of a 96-well plate. Subsequently, the hPBMCs were incubated for 4-5 hours at 37° C., 5% CO2 (During the incubation, the monocytes adhered to the bottom of 96-well plastic culture plate). Following the incubation, the non-adherent lymphocytes were washed with assay medium and the adherent monocytes re-fed with assay medium. After a 48-hour incubation period (37° C., 5% CO2), monocytes were pretreated with various concentrations of representative compounds of present invention (refer to table 6 and 7) (prepared in DMSO) or vehicle (0.5% DMSO) for 30 minutes and stimulated with 1 μg/ml LPS (Escherchia coli 0111:B4, Sigma Chemical Co., St. Louis, Mo.). The incubation was continued for 5 hours at 37° C., 5% CO2. Supernatants were harvested, assayed for IL-6 and TNF-α by ELISA as described by the manufacturer (BD Biosciences, USA). Dexamethasone (10 μM) was used as standard for this assay. […] Biological results for both IL-6 and TNFα are indicated in Table 6 and Table 7 respectively.

PC3 = experiment: Cytotoxicity assay (propidium iodide), PC3; settings: Homo sapiens, PC-3, 48 h, read-out: IC50 cytotoxicity
OVCAR 3 = experiment: Cytotoxicity assay (propidium iodide), OVCAR 3; assay type: cell-based; settings: Homo sapiens; OVCAR 3 (C3c, ovarian); 48 hours
Procedure: as §4

H460 = experiment: Cytotoxicity assay (propidium iodide), H460; assay type: cell-based; settings: Homo sapiens, NCI-H460; H460 (C1b, lung); 48 hours
IL-6 [2] = experiment: Human monocyte assay, LPS-stimulated IL-6; assay type: cell-based; settings: Monocyte; human monocytes, 1 μg/ml LPS, 5 hours
Outline: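 Adherent human PBMC-derived monocytes (2×10^4/well) were cultured 48 h, preincubated 30 min with compound or 0.5% DMSO, then stimulated with 1 μg/ml E. coli LPS for 5 h at 37° C. TNF-α and IL-6 in supernatants were measured by ELISA.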

A2780 = experiment: Cytotoxicity assay (propidium iodide), A2780; assay type: cell-based; settings: Homo sapiens; A2780 (C3a, ovarian); 48 hours
Procedure: as §4

STAT3 = STAT3 bioassay (Hela Stat3-luc, luciferase); assay type: cell-based; settings: Homo sapiens, Oncostatin M induction
Procedure: Cells were seeded (Hela Stat3-luc, ATCC P/N 30-2002) in a white 96 well plate (Nunc cat.no.136101) at a density of 20,000cells/well in 179 μl volume per well (DMEM from Sigma containing 10% FCS). The plate was incubated for 24 hours at 37° C./5% CO2. The cells (wells in triplicates) were then treated with 1 μl/well of 200× stock of the desired compound concentration prepared in 100% DMSO. Curcumin was used as a standard or positive control, added 10 μg/ml in triplicate. DMSO was used as medium control (1 μl/well added in triplicates). The plate was incubated at 37° C./5% CO2 for 1 hour. 20 μl/well Oncostatin M (Oncostatin M, Human, Recombinant, E. coli, Cat.No. 496260, 10 μg from Calbiochem) was added to treated wells, induction control (in triplicate) (1000 ng/ml stock prepared in serum free medium to get final concentration 100 ng/ml). The plate was then incubated for 7-8 hours at 37° C./5% CO2 for induction. A typical assay would consist of triplicate of medium control, triplicate of induction control, triplicate of positive/standard control and test compounds at desired concentration in triplicates. For termination Luciferase assay protocol was followed where the culture medium was removed from all the wells.
200 μl well of PBS was added to remove traces of medium and compound. The PBS was discarded. 40 μl/well of 1× lysis buffer was added to all the wells. The plate was incubated at RT for 20 minutes with intermittent shaking. 100 μl/well of LAB reagent was added to all the wells in dark. {LAB reagent for 1 plate=8 ml Luciferase assay buffer (LAB)+1 ml Coenzyme A (Sigma cat no. C3019) (2.1 mg/ml stock in LAB)+530 μL of ATP (Sigma cat.no.A2383) (5.85 mg/ml stock in LAB)+1 ml luciferin reagent (Promega cat no.245355) (2 mg/ml stock in LAB, protect from light)}.
The luminescence was immediately read on polar star. The values were expressed as percentage inhibition, in terms of treated values to that STAT3 (induction control). IC50 values were calculated from graphs using these percentages.

A549 = experiment: Cytotoxicity assay (propidium iodide), A549; assay type: cell-based; settings: Homo sapiens; A549 (C1a, lung); 48 hours
Procedure: as §4

CAPAN1 = experiment: Cytotoxicity assay (propidium iodide), CAPAN1; assay type: cell-based; settings: Homo sapiens, CAPAN-1; CAPAN1 (C5b, pancreatic); 48 hours
Procedure: as §4

IL-8 = experiment: Synovial tissue assay, IL-8; assay type: cell-based; settings: Homo sapiens; synovial tissue cells from rheumatoid arthritis patients, 16 hours
Procedure: (§1) The assay was designed as in the reference, Lancet, 2(8657), 244-7, Jul.
(§2) Stock Solution: Compounds of the present invention were dissolved in DMSO to obtain a stock solution of 20 mM.
(§3) Synovial tissue was obtained from rheumatoid arthritis patients undergoing knee replacement surgery. The tissue was minced into small pieces and digested in RPMI medium containing 100 U/ml penicillin-G, 100 μg/ml streptomycin, 50 ng/ml amphotericin B (GIBCO; USA), 1.33 mg/ml collagenase Type I (Worthington Biochemical Corporation, New Jersey), 0.5 μg/ml DNAse Type I (Sigma Aldrich; St. Louis, Mo.) and 8.33 U/ml heparin (Biological E. Limited, India) for 3 hours at 37° C., 5% CO2. The digested tissue was filtered through a membrane (mesh size 70 micron; Sigma Aldrich). Subsequently, the cells were washed 3 times and resuspended in complete medium (RPMI supplemented with 5% FBS and 5% human serum-AB+) at a concentration of 1×10^6 cells/ml. All cell washes in this assay were performed using Rosewall Park Memorial Institute (RPMI)-1640 medium (JRH; Australia). For the experiment, 100 μl of cell suspension was added to the wells of a 96-well culture plate. Following cell plating, 100 μl of the culture medium and 1 μl of various concentrations (0.01, 0.03, 0.1, 0.3, 1, 3, 10, 30 and 100 μM) of the compounds of present invention dissolved in DMSO were added to the cells. The final concentration of DMSO was adjusted to 0.5%. For experimental purposes, 1 μl of […] concentrated solution of the compounds of present invention were dissolved in 200 μl cell suspension to achieve a final concentration of 0.01, 0.03, 0.1, 0.3, 1, 3, 10, 30 and 100 μM. The vehicle (0.5% DMSO) was used as control. 10 μM dexamethasone (Sigma Aldrich) or 1 μM 7-hydroxyfluorinide (7HF) were used as standards for the experiments. The plates were incubated for 16 hours at 37° C., 5% CO2. Subsequently, the supernatants were harvested and stored at −70° C. The amounts of TNF-α, IL-6 and interleukin-8 (IL-8) in the supernatants were assayed using OptiEIA ELISA sets, (BD BioSciences Pharmingen). The protocol followed was as per manufacturers instructions. […] The cytotoxicity of test compounds in synovial cells was assessed by MTS assay. Absorbance was measured at 490 nm. Percent cytotoxicity was calculated by the equation: % Cytotoxicity=(A−B)/A×100 where, A is the absorbance of cells treated with DMSO alone and B is the absorbance of cells treated with the test article.

IL-6 [3] = experiment: Synovial tissue assay, IL-6; assay type: cell-based; settings: Homo sapiens; synovial tissue cells from rheumatoid arthritis patients, 16 hours
Procedure: as §1, §2, §3

TNF-α [4] = experiment: Synovial tissue assay, TNF-α; assay type: cell-based; settings: Homo sapiens; synovial tissue cells from rheumatoid arthritis patients, 16 hours
Procedure: as §1, §2, §3

PI3Kα kinase = molecular target: T1, PI3Kα kinase (Homo sapiens, UniProt P42336); experiment: Kinase assay (PI3Kα); assay type: biochemical; settings: read-out: IC50 (μM) for PI3K inhibition
T1 construct: purchased Millipore, USA
T1 sequence (P42336 whole entry): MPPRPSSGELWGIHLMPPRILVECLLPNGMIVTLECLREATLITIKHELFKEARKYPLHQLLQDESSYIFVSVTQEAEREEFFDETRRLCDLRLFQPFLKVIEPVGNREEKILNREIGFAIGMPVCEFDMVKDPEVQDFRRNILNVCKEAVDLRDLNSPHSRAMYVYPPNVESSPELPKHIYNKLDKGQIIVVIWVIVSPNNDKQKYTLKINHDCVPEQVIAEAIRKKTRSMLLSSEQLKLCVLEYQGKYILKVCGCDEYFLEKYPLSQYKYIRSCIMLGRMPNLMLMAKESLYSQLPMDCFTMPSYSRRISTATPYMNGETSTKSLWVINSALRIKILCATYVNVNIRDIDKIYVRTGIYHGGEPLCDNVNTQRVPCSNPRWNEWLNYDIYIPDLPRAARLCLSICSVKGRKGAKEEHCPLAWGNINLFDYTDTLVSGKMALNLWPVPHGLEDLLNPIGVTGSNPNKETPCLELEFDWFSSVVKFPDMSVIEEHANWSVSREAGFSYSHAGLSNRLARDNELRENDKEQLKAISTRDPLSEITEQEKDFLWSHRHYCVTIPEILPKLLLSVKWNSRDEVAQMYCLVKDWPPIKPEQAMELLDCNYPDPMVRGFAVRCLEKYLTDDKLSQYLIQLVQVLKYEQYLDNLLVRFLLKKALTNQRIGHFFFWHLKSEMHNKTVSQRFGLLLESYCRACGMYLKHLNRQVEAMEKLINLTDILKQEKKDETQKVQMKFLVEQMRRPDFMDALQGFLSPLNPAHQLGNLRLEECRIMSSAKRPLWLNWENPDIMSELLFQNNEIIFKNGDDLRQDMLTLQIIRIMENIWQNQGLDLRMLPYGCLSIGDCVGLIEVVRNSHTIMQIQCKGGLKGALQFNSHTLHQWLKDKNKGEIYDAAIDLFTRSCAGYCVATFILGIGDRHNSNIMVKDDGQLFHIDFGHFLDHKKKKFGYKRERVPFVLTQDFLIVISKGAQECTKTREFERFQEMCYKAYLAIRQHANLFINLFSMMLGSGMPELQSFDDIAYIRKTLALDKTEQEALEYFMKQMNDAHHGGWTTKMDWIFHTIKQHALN
T1 sequence (P27986 whole entry partner): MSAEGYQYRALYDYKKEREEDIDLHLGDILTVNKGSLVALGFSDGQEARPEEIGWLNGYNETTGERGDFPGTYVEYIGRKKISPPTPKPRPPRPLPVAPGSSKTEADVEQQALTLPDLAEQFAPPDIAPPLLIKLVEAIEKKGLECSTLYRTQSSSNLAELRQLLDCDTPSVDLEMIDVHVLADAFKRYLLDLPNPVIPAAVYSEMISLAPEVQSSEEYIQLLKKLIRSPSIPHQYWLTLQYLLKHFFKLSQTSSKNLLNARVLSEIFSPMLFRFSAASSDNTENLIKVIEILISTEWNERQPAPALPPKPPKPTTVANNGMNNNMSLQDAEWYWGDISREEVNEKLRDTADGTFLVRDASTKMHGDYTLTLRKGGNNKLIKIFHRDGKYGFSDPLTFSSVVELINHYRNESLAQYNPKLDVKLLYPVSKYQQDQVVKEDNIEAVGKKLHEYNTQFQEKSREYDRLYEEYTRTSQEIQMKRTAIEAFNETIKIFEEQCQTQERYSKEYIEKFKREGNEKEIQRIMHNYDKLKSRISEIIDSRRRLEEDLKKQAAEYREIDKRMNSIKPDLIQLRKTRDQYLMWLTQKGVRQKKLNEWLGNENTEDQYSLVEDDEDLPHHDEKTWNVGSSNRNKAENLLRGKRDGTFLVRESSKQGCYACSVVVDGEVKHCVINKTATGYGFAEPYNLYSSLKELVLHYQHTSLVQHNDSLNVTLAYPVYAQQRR
Procedure: The kinase reaction was carried out in a 25 μL volume in a 1.5 mL microcentrifuge tube. The reaction mixture consisted of kinase buffer (10 mM Hepes, pH 7.5, 50 mM MgCl2), 20 ng PI3Kα kinase (Millipore, USA), 12.5 μg phosphotidylinositol (PI), 10 μM ATP and 1 μCi ^32γ P […]. […] The reactions were incubated at 30° C. for 20 minutes and were terminated by adding 1:1 mixture of MeOH and CHCl3. The tube contents were mixed on a vortex mixer and centrifuged at 10000 rpm for 2 minutes. 10 μL of the organic (lower) phase was spotted on to a TLC plate (silica, mobile phase: n-propanol and 2 M glacial acetic acid in 65:35 ratio). The plates were dried and exposed to an X-ray film. The bands appearing as a result of ^32γ P incorporation in PI were quantitated using the Quantityl)ne (BioRad, USA) densitometry program. PI-103 (Calbiochem, USA) was used as a standard.

MCF7 = experiment: Cytotoxicity assay (propidium iodide), MCF7; assay type: cell-based; settings: Homo sapiens; MCF7 (C6c, breast); 48 hours
Procedure: as §4

G361 = experiment: Cytotoxicity assay (propidium iodide), G361; assay type: cell-based; settings: G-361; G361 (C9a, human melanoma); 48 hours
Procedure: as §4

MDA MB 468 = experiment: Cytotoxicity assay (propidium iodide), MDA MB 468; assay type: cell-based; settings: Homo sapiens; MDA MB 468 (C6b, breast); 48 hours
Procedure: as §4

## CN(N=Cc1cnc2ccc(-c3cccnc3)cn12)S(=O)(=O)c1ccccc1 [Example 1, N-methyl-N′-((6-(pyridin-3-yl)imidazo[1,2-a]pyridin-3-yl)methylene)benzenesulfonohydrazide]
HCT116
  IC50: 10 to 5000 nM
PANC 1
  IC50: 10 to 5000 nM
TNF-α [1]
  IC50: 1 to 1000 nM
PC3
  IC50: 0.01 to 5 µM
OVCAR 3
  IC50: 10 to 5000 nM
H460
  IC50: 0.01 to 5 µM
IL-6 [2]
  IC50: 0.001 to 5 µM
A2780
  IC50: 10 to 5000 nM
STAT3
  IC50: 5 to 10 µM
A549
  IC50: 0.01 to 5 µM
CAPAN1
  IC50: 10 to 5000 nM

## CN(N=Cc1cnc2ccc(-c3cccnc3)cn12)S(=O)(=O)c1ccccc1F [Example 4, 2-Fluoro-N-methyl-N′-((6-(pyridine-3-yl)imidazo[1,2-a]pyridine-3-yl)methylene)benzenesulfonohydrazide]
TNF-α [1]
  IC50: 1 to 1000 nM
IL-8
  IC50: 0.3 to 3 µM
IL-6 [3]
  IC50: 0.01 to 0.3 µM
IL-6 [2]
  IC50: 0.001 to 5 µM
STAT3
  IC50: 0.1 to 5 µM
TNF-α [4]
  IC50: 0.01 to 0.3 µM

## CN(/N=C/c1cnc2ccc(-c3cccnc3)cn12)S(=O)(=O)c1cccc(C#N)c1 [Example 10, (E)-3-cyano-N-methyl-N′-((6-(pyridin-3-yl)imidazo[1,2-a]pyridin-3-yl)methylene)benzenesulfonohydrazide]
HCT116
  IC50: 10 to 5000 nM
TNF-α [1]
  IC50: 1 to 1000 nM
PC3
  IC50: 0.01 to 5 µM
OVCAR 3
  IC50: 10 to 5000 nM
H460
  IC50: 0.01 to 5 µM
IL-6 [2]
  IC50: 0.001 to 5 µM
A2780
  IC50: 10 to 5000 nM
STAT3
  IC50: 0.1 to 5 µM
A549
  IC50: 0.01 to 5 µM

## CN(N=Cc1cnc2ccc(-c3cccnc3)cn12)S(=O)(=O)c1ccc(F)cc1F [Example 13, 2,4-Difluoro-N-methyl-N′-((6-(pyridine-3-yl)imidazo[1,2-a]pyridine-3-yl)methylene) benzenesulfonohydrazide]
TNF-α [1]
  IC50: 1 to 1000 nM
IL-8
  IC50: 0.3 to 3 µM
IL-6 [3]
  IC50: 0.01 to 0.3 µM
IL-6 [2]
  IC50: 0.001 to 5 µM
STAT3
  IC50: 5 to 10 µM
TNF-α [4]
  IC50: 0.01 to 0.3 µM

## CN(N=Cc1cnc2ccc(-c3cccnc3)cn12)S(=O)(=O)c1c(F)cccc1F [Example 14, 2,6-Difluoro-N-methyl-N′-((6-(pyridine-3-yl)imidazo[1,2-a]pyridine-3-yl)methylene) benzenesulfonohydrazide]
TNF-α [1]
  IC50: 1 to 1000 nM
IL-8
  IC50: 0.3 to 3 µM
IL-6 [3]
  IC50: 0.01 to 0.3 µM
IL-6 [2]
  IC50: 0.001 to 5 µM
PI3Kα kinase
  IC50: 0.01 to 0.5 µM
STAT3
  IC50: 5 to 10 µM
TNF-α [4]
  IC50: 0.01 to 0.3 µM

## Cc1ccc(F)c(S(=O)(=O)N(C)N=Cc2cnc3ccc(-c4cccnc4)cn23)c1 [Example 19, 2-Fluoro-N, 5-dimethyl-N′-((6-(pyridine-3-yl)imidazo[1,2-a]pyridine-3-yl)methylene) benzenesulfonohydrazide]
TNF-α [1]
  IC50: 1 to 1000 nM
IL-8
  IC50: 0.3 to 3 µM
IL-6 [3]
  IC50: 0.3 to 3 µM
IL-6 [2]
  IC50: 0.001 to 5 µM
TNF-α [4]
  IC50: 0.3 to 3 µM

## CN(N=Cc1cnc2ccc(-c3cccnc3)cn12)S(=O)(=O)c1cccc2cccnc12 [Example 30, N-methyl-N′-((6-(pyridine-3-yl)imidazo[1,2-a]pyridine-3-yl)methylene) quinoline-8-sulfonohydrazide]
MCF7
  IC50: > 5 µM
PC3
  IC50: > 5 µM
H460
  IC50: > 5 µM
IL-6 [2]
  IC50: ≥ 5 µM
G361
  IC50: > 5 µM
MDA MB 468
  IC50: > 5 µM
A549
  IC50: > 5 µM

## Cc1ccc([N+](=O)[O-])cc1S(=O)(=O)N(C)N=Cc1cnc2ccc(-c3cnc4ccccc4c3)cn12 [Example 99, N, 2-Dimethyl-5-nitro-N′-((6-(quinolin-3-yl)imidazo[1,2-a]pyridine-3-yl)methylene)benzenesulfonohydrazide]
HCT116
  IC50: 10 to 5000 nM
PC3
  IC50: 0.01 to 5 µM
OVCAR 3
  IC50: 10 to 5000 nM
H460
  IC50: 0.01 to 5 µM
IL-6 [2]
  IC50: 0.001 to 5 µM
A2780
  IC50: 10 to 5000 nM
A549
  IC50: 0.01 to 5 µM

Reference: US8741932B2, “Imidazopyridine derivatives” (Piramal Enterprises Limited, priority 2009, dated 2014)
